Like-named read-outs stand apart in the source and are kept apart here.
Biological target: T1, human PDE9A2 (Homo sapiens, UniProt O76083)
T1 construct: made in house; host or cells: Sf9 insect cells (infected); crude lysate used as enzyme source
Test: PDE9A2 enzymatic activity assay (scintillation proximity assay, SPA)
Assay type: biochemical
Settings: for IC50: reported only as range 1-100 or 101-1200 nanomolar, specific value lies within range

[1] = read-out: % inhibition of PDE9A2 (at 10 micromolar concentration), 10 micromolar concentration, values above 100% adjusted to 100%
[2] = read-out: IC50 within range [nanomolar (nM)]
[3] = values above 100% adjusted to 100%

T1 sequence (O76083 1-533 isoform O76083-2): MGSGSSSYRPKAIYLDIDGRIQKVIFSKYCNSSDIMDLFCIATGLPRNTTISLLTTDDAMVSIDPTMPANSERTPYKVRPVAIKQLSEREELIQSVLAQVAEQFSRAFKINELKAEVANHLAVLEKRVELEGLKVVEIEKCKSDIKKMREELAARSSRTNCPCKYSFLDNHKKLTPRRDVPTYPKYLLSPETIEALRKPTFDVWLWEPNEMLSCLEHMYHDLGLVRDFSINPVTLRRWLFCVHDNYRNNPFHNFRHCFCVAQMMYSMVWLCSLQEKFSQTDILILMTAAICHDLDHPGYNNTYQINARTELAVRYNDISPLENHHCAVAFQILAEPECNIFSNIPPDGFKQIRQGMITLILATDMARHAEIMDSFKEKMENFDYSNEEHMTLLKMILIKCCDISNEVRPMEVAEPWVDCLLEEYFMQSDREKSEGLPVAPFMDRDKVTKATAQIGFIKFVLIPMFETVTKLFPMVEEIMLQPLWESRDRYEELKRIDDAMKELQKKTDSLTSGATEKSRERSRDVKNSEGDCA

Row | Compound | inhibition at 10 µM [1] | IC50 [2] | % inhibition of PDE9A2 (at 10 micromolar concentration) [3] | IC50 (IC50 within range [nanomolar (nM)]) | inhibition at 10 µM (read-out: % inhibition of PDE9A2 (at 10 micromolar concentration))
1 | CCOc1ccccc1Cc1nc2c(cnn2C2CCOCC2)c(=O)[nH]1 [Example 52] | 100% | 1 to 100 nM | – | – | –
2 | CC(C)(C)OC(=O)N1CCCC(n2ncc3c(=O)[nH]c(CC4CCCC4)nc32)C1 (racemic) [Example 17] | 100% | 1 to 100 nM | – | – | –
3 | CC(Cc1nc2c(cnn2C2CCOCC2)c(=O)[nH]1)C(F)(F)F (single isomer, unassigned) [Example 131] | 97% | 1 to 100 nM | – | – | –
4 | CC(=O)N1CCCC(n2ncc3c(=O)[nH]c(Cc4ccccc4F)nc32)C1 (racemic) [Example 187] | 96% | 1 to 100 nM | – | – | –
5 | CC1CC(n2ncc3c(=O)[nH]c(Cc4ccccc4C#N)nc32)CCO1 (racemic) [Example 121] | 94% | 101 to 1200 nM | – | – | –
6 | O=c1[nH]c(Cc2cccc(C(F)(F)F)c2)nc2c1cnn2C1CCCCO1 (racemic) [Example 147-3] | 95% | 1 to 100 nM | – | – | –
7 | CN1CCC(n2ncc3c(=O)[nH]c(CC4CCCC4)nc32)C1 (racemic) [Example 207] | 100% | 1 to 100 nM | – | – | –
8 | Cc1cccnc1Cc1nc2c(cnn2C2CCOC2)c(=O)[nH]1 (racemic) [Example 87] | 86% | 101 to 1200 nM | – | – | –
9 | O=c1[nH]c(Cc2ccc(F)cc2)nc2c1cnn2C1CCOCC1 [Example 140] | 100% | 1 to 100 nM | – | – | –
10 | CCC(Cc1nc2c(cnn2C2CCOCC2)c(=O)[nH]1)C(F)(F)F (single isomer, unassigned) [Example 61] | 97% | 1 to 100 nM | – | – | –
11 | CC(C)Cc1nc2c(cnn2C2CCOCC2C)c(=O)[nH]1 (racemic) [Example 132-8] | – | 101 to 1200 nM | 94% | – | –
12 | O=c1[nH]c(CC2CCC2)nc2c1cnn2C1CCOC1 (single isomer, unassigned) [Example 132-6] | 99% | 1 to 100 nM | – | – | –
13 | O=c1[nH]c(Cc2ccccc2OC(F)(F)F)nc2c1cnn2C1CCCOC1 (racemic) [Example 91] | 99% | 1 to 100 nM | – | – | –
14 | O=c1[nH]c(Cc2cc(Cl)cc(Cl)c2)nc2c1cnn2C1CCOCC1 [Example 38] | 99% | 1 to 100 nM | – | – | –
15 | Cc1cccn(-c2ccccc2Cc2nc3c(cnn3C3CCOCC3)c(=O)[nH]2)c1=O [Example 40-7] | 95% | 101 to 1200 nM | – | – | –
16 | CC(=O)N1CCCC(n2ncc3c(=O)[nH]c(Cc4ccccn4)nc32)C1 (racemic) [Example 176] | 85% | 101 to 1200 nM | – | – | –
17 | O=c1[nH]c(Cc2ccccc2C(F)(F)F)nc2c1cnn2C1CCCOC1 (racemic) [Example 97] | 98% | 1 to 100 nM | – | – | –
18 | O=c1[nH]c(CC2CCCC2)nc2c1cnn2C1CCOCC1 [Example 134] | 99% | 1 to 100 nM | – | – | –
19 | N#Cc1cccc(Cc2nc3c(cnn3C3CCCOC3)c(=O)[nH]2)c1 (racemic) [Example 98] | 97% | 1 to 100 nM | – | – | –
20 | CC(C)Cc1nc2c(cnn2C2CCOC2)c(=O)[nH]1 (racemic) [Example 74] | 95% | 1 to 100 nM | – | – | –
21 | O=c1[nH]c(CC2CCCCC2)nc2c1cnn2C1CCOC1 (racemic) [Example 75] | 98% | 1 to 100 nM | – | – | –

Row | Compound | inhibition at 10 µM [1] | IC50 [2] | % inhibition of PDE9A2 (at 10 micromolar concentration) [3] | IC50 (IC50 within range [nanomolar (nM)]) | inhibition at 10 µM (read-out: % inhibition of PDE9A2 (at 10 micromolar concentration))
22 | CC(C)Cc1nc2c(cnn2C2CCOC(C)(C)C2)c(=O)[nH]1 (racemic) [Example 106] | 87% | 101 to 1200 nM | – | – | –
23 | CN1CCC(n2ncc3c(=O)[nH]c(Cc4ccccc4)nc32)CC1 [Example 148] | 86% | 101 to 1200 nM | – | – | –
24 | O=c1[nH]c(CC2CCCC2)nc2c1cnn2C1CCCN(CC(F)F)C1 (racemic) [Example 193] | 99% | 101 to 1200 nM | – | – | –
25 | CC(=O)N1CCCC(n2ncc3c(=O)[nH]c(Cc4ccccc4)nc32)C1 (racemic) [Example 158] | 97% | 1 to 100 nM | – | – | –
26 | O=c1[nH]c(Cc2cccc(C(F)(F)F)c2)nc2c1cnn2C1CCOCC1 [Example 44] | 99% | 1 to 100 nM | – | – | –
27 | CC(C)Cc1nc2c(cnn2C2CCCN(C(=O)c3ccccc3)C2)c(=O)[nH]1 (racemic) [Example 177] | 93% | 101 to 1200 nM | – | – | –
28 | CC(C)(C)OC(=O)N1CCCC(n2ncc3c(=O)[nH]c(Cc4ccccc4)nc32)C1 (racemic) [Example 18] | 99% | 1 to 100 nM | – | – | –
29 | O=c1[nH]c(Cc2ccccc2)nc2c1cnn2C1CCOCC1 [Example 40] | – | – | – | 1 to 100 nM | 99%
30 | O=c1[nH]c(CC2CC2)nc2c1cnn2C1CCCCO1 (racemic) [Example 147-2] | 87% | 101 to 1200 nM | – | – | –
31 | CC(C)Cc1nc2c(cnn2C2CCOC2)c(=O)[nH]1 (single isomer, unassigned) [Example 132-4] | – | 1 to 100 nM | 98% | – | –
32 | CC(=O)N1CCCC(n2ncc3c(=O)[nH]c(Cc4ccccc4OC(F)(F)F)nc32)C1 (racemic) [Example 188] | 96% | 1 to 100 nM | – | – | –
33 | Cc1nc(Cc2nc3c(cnn3C3CCOCC3)c(=O)[nH]2)c(C)s1 [Example 24] | 86% | 101 to 1200 nM | – | – | –
34 | CC(=O)N1CCCC(n2ncc3c(=O)[nH]c(CC(C)C)nc32)C1 (racemic) [Example 189] | 90% | 101 to 1200 nM | – | – | –
35 | O=c1[nH]c(Cc2cc(C(F)(F)F)ccn2)nc2c1cnn2C1CCOCC1 [Example 65] | 97% | 1 to 100 nM | – | – | –
36 | COc1cccc(Cl)c1Cc1nc2c(cnn2C2CCOCC2)c(=O)[nH]1 [Example 33] | 97% | 1 to 100 nM | – | – | –
37 | CN(C)C(=O)N1CCCC(n2ncc3c(=O)[nH]c(Cc4ccccc4OC(F)(F)F)nc32)C1 (racemic) [Example 161] | 95% | 101 to 1200 nM | – | – | –
38 | CN1CCC(n2ncc3c(=O)[nH]c(Cc4ccccc4)nc32)C1 (racemic) [Example 210] | 97% | 1 to 100 nM | – | – | –
39 | O=C(c1ccccc1)N1CCC(n2ncc3c(=O)[nH]c(CC4CCCC4)nc32)C1 (racemic) [Example 167] | 93% | 101 to 1200 nM | – | – | –
40 | CC(C)Oc1ccccc1Cc1nc2c(cnn2C2CCOCC2)c(=O)[nH]1 [Example 54] | 97% | 1 to 100 nM | – | – | –
41 | N#Cc1ccccc1Cc1nc2c(cnn2C2CCOCC2)c(=O)[nH]1 [Example 53] | 99% | 1 to 100 nM | – | – | –
42 | CC(C)(C)OC(=O)N1CCCC(n2ncc3c(=O)[nH]c(Cc4ccccn4)nc32)C1 (racemic) [Example 20] | 98% | 1 to 100 nM | – | – | –

Row | Compound | inhibition at 10 µM [1] | IC50 [2] | % inhibition of PDE9A2 (at 10 micromolar concentration) [3] | IC50 (IC50 within range [nanomolar (nM)]) | inhibition at 10 µM (read-out: % inhibition of PDE9A2 (at 10 micromolar concentration))
43 | O=c1[nH]c(Cc2cc(F)cc(F)c2)nc2c1cnn2C1CCOCC1 [Example 7] | 98% | 1 to 100 nM | – | – | –
44 | CCOc1ccccc1Cc1nc2c(cnn2C2CCOC2)c(=O)[nH]1 (racemic) [Example 82] | 100% | 1 to 100 nM | – | – | –
45 | O=c1[nH]c(Cc2ccc(F)c(Cl)c2)nc2c1cnn2C1CCOC1 (racemic) [Example 71] | 99% | 1 to 100 nM | – | – | –
46 | O=C(Oc1ccc(F)cc1)N1CCCC(n2ncc3c(=O)[nH]c(Cc4ccccc4)nc32)C1 (racemic) [Example 185] | 100% | 1 to 100 nM | – | – | –
47 | O=c1[nH]c(CC2CCCCCC2)nc2c1cnn2C1CCOCC1 [Example 1] | 100% | 1 to 100 nM | – | – | –
48 | O=c1[nH]c(Cc2ccccc2OC(F)(F)F)nc2c1cnn2C1CCCNC1 (racemic) [Example 198] | 100% | 101 to 1200 nM | – | – | –
49 | COc1cccnc1Cc1nc2c(cnn2C2CCCOC2)c(=O)[nH]1 (racemic) [Example 122] | 85% | 101 to 1200 nM | – | – | –
50 | O=c1[nH]c(C(F)(F)c2ccccc2)nc2c1cnn2C1CCOCC1 [Example 13] | 90% | 101 to 1200 nM | – | – | –
51 | O=c1[nH]c(CC2CC2)nc2c1cnn2C1CCCOC1 (racemic) [Example 99] | 96% | 1 to 100 nM | – | – | –
52 | O=c1[nH]c(Cc2cccc(Cl)c2)nc2c1cnn2C1CCOCC1 [Example 39] | 99% | 1 to 100 nM | – | – | –
53 | O=c1[nH]c(Cc2ccccc2OC(F)(F)F)nc2c1cnn2C1CCNCC1 [Example 203] | 84% | 101 to 1200 nM | – | – | –
54 | O=c1[nH]c(CC2CCOC2)nc2c1cnn2C1CCOC1 (mixture of isomers) [Example 81] | 78% | 101 to 1200 nM | – | – | –
55 | O=C(c1ccccc1)N1CCCC(n2ncc3c(=O)[nH]c(Cc4ccccc4F)nc32)C1 (racemic) [Example 186] | 97% | 1 to 100 nM | – | – | –
56 | CC1(C)CC(n2ncc3c(=O)[nH]c(CC4CCC4)nc32)CCO1 (racemic) [Example 108] | 89% | 101 to 1200 nM | – | – | –
57 | O=c1[nH]c(CC2CCCCC2)nc2c1cnn2C1CCOCC1 [Example 144] | 100% | 1 to 100 nM | – | – | –
58 | CC1CC(n2ncc3c(=O)[nH]c(CC4CCCC4)nc32)CCO1 (racemic) [Example 112] | 97% | 1 to 100 nM | – | – | –
59 | CN1CCC(n2ncc3c(=O)[nH]c(CC4CCCC4)nc32)CC1 [Example 149] | 95% | 101 to 1200 nM | – | – | –
60 | CC1CC(n2ncc3c(=O)[nH]c(CC4CCC4)nc32)CCO1 (racemic) [Example 120] | 95% | 1 to 100 nM | – | – | –
61 | O=c1[nH]c(Cc2ccccc2)nc2c1cnn2C1CCCNC1 (racemic) [Example 197] | 91% | 101 to 1200 nM | – | – | –
62 | O=c1[nH]c(Cc2ccc(F)cc2Cl)nc2c1cnn2C1CCOCC1 [Example 10] | 98% | 1 to 100 nM | – | – | –
63 | O=c1[nH]c(Cc2cccc(C(F)(F)F)c2)nc2c1cnn2C1CCCOC1 (racemic) [Example 129] | 99% | 1 to 100 nM | – | – | –
